This is an account of results in patent US20240424002A1, “METHODS AND COMPOSITIONS FOR TREATING MELANOMA” (THE REGENTS OF THE UNIVERSITY OF CALIFORNIA, priority 2021, published 2024).

Entries after “also recorded” stand apart in the source; their conditions may differ.

Assay [1] deals with SC4 DM+ cells (M249-VSR single-cell-derived clone). The assay is described as follows: FISH assessment of HSRs after long-term DNA-PK inhibition. Type of assay: cell-based, human. Particulars: 5 μM NU7026 for 107 days vs DMSO 90 days; FIG. 2E. As to the method:
(§1) Cells were blocked at metaphases by adding colcemid (KaryoMax, Thermo Fisher Scientific) at a final concentration of 0.05 μg/ml followed by incubation at 37° C. for 6-8 hours. Cells were then fixed using methanol:acetic acid (3:1). FISH slides were prepared by dropping fixed cells in a humid environment following the manufacture's protocol provided by Cytotest and Empire Genomics. FFPE xenograft tumor FISH slides were prepared by pepsin digestion followed by similar procedures of cell line FISH. Colored FISH images were taken and processed using confocal microscope Leica TCS SP8 X. Karyotype categorizations were based on the guidelines in FIG. 8. The fractions under certain images represent the number of cases for corresponding karyotype divided by total number of cases analyzed. If not otherwise mentioned, scale bars in FISH images represent 10 μm. Centromere probe names are abbreviated as CEN-x. DM numbers were quantified by directly counting the number of features in the FISH images or by using ecDNA quantification tool EcSeg (93). HSR lengths were quantified by dividing the probe area by chromosomal DAPI area in metaphases. The staining areas were calculated using ImageJ v1.53a. Cells fixed by the same procedure were also used for G-banding. G-banded metaphase spreads were photographed using 80i Nikon Microscope and Applied Spectral Imaging (ASI) Karyotyping system. […]

Assay [2] has as its system SC2 cells (M249-VSR HSR subclone). Nature of the assay: FISH count of HSRs per cell after long-term DNA-PK inhibition. Particulars: 5 μM NU7026 for three months vs DMSO; FIG. 2G. Type of assay: cell-based, human. As to the method:
as §1

Assay [3] relates to M249-P, M249-VSR-DM and M249-VSR-HSR cells. Nature of the assay: Dose response curve of ferroptosis inducing agents, viability by CellTiter-Glo. The settings on record: for sensitivity to RSL3 of M249-VSR after drug withdrawal: after VEM+SEL withdrawal, reduced BRAF copy number. The assay is classed as cell-based, human. As for the experimental part:
(§2) The dose response curves of ferroptosis inducing agents RSL3, Erastin and Ferroptocide were performed by seeding appropriate number of cells on day 0 in 96-well plates, […] luminescent assay. If not otherwise mentioned, resistance cells were maintained in full dose of MAPK inhibitors throughout the dose response experiments to keep the BRAF amplifications. Seeding density for each cell line was determined by using the same assay and the same experimental length with multiple cell number titrations. The dose series were generated by serial dilutions. All drugs used for dose response curves were dissolved in DMSO. DMSO toxicity was performed on the cell lines to determine the appropriate DMSO concentration (0.5%), which was used in all doses. The resulting values from viability assays were normalized to the zero-dose condition after subtracting background (wells with no cells). The curve fittings were performed by using three-parameter model in dre v3.0-1 R package (119).

In assay [4] the test system is A375-DTR cells vs parental. The description is as above. The assay is classed as cell-based. As to the method:
as §2

Assay [5] relates to Mel888-DTR cells vs parental. The description is as above. Type of assay: cell-based. As for the experimental part: as §2
Assay [6] has as its system M249-P and M249-VSR-DM cells. The assay is described as follows: Lipid ROS measurement by flow cytometry. Type of assay: cell-based, human. Particulars: FIG. 23A / 25A. For orientation: In flow cytometry, cells or beads pass a laser one at a time.
For assay [7], the system named is M229P/R, M238P/R and SKMEL28P/R cell lines. Particulars: resistance through upregulation of RTKs, dedifferentiation; cited from earlier work.
Assay [8] has as its system M249-VSR sublines. Nature of the assay: Viability assay for inducing and protecting from ferroptosis. The settings on record: added in combination with RSL3; CellTiter-Glo 24 hr after treatment; FIG. 7B-C / 24B-C. Type of assay: cell-based, human. As to the method:
6000 cells were seeded per well in 96-well plates and treated with ferroptosis inducing agents in combination with vehicle, GSH (Sigma, G4376), Trolox (Acros Organics, 218940010) or DFO (Sigma, D9533) next day. CellTiter-Glo luminescence was assessed 24 hr after treatment. For quantification, all values are normalized to vehicle conditions. Resistance cells were maintained in full dose of MAPK inhibitors throughout the treatments to keep the BRAF amplifications.
(ATP-based viability assays read luminescence as a measure of living cells.)

In the case of `O=c1cc(N2CCOCC2)oc2c1ccc1ccccc12` [NU7026], the “frequency of cells displaying HSR integrations” value in assay [1] is recorded as “decreased the frequency of cells displaying HSR integrations”. Further, the “percentage of cells with multiple HSRs” value in assay [2] was “lower percentage of multiple HSRs”.

Take `COC(=O)c1ccc([C@@H]2c3[nH]c4ccccc4c3C[C@@H](C(=O)OC)N2C(=O)CCl)cc1` [RSL3]: the “sensitivity to RSL3 of M249-VSR-DM and -HSR compared to M249-P” value in assay [3] (FIG. 7A, 72 hr treatment) is “substantially more sensitive”; in assay [3] (FIG. 24A, 24 hr treatment, CellTiter-Glo, resistant cells kept in full dose MAPK inhibitors), “substantially more sensitive”. Moreover, the “sensitivity to RSL3 of M249-VSR after drug withdrawal” value in assay [3] (FIG. 7A, 72 hr treatment) was “lose sensitivity reverting to levels closer to the parental cells”; in assay [3] (FIG. 24A, 24 hr treatment), “lose sensitivity reverting to levels closer to the parental cells”. In addition, the “RSL3 sensitivity of A375-DTR compared to parental” value in assay [4] (FIG. 7A, 72 hr treatment) was “increased RSL3 sensitivity”; in assay [4] (FIG. 24A, 24 hr treatment) it was “increased RSL3 sensitivity”. The “RSL3 sensitivity of Mel888-DTR compared to parental” value in assay [5] (FIG. 7A, 72 hr treatment) was “increased RSL3 sensitivity”; in assay [5] (FIG. 24A, 24 hr treatment), “increased RSL3 sensitivity”. Besides, in assay [6] (1 μM RSL3, 24 hr, C11-BODIPY dye), the “lipid ROS levels upon RSL3 treatment” value is “increased lipid ROS levels; also recorded: increase in lipid ROS levels”. The “sensitivity to RSL3 of resistant vs parental lines” value in assay [7] is given as “increased sensitivity”.

Turning to `Cc1c(C)c2c(c(C)c1O)CCC(C)(C(=O)O)O2` (stereo not shown) [Trolox], the “rescue of RSL3-induced cell death (percent viable cells)” value in assay [8] is reported as “cell death can be rescued”. The “protection against RSL3-induced lipid ROS” value in assay [6] (150 μM Trolox with 1 μM RSL3, 24 hr) is listed as “protected; also recorded: protects against RSL3-induced lipid ROS”.

In the case of `C[C@@H]1CC[C@@]23C[C@H](O)C(=O)[C@@]2(O)[C@]1(C)[C@H](OC(=O)CCl)C[C@@H](C1=CCn2c(=O)n(-c4ccccc4)c(=O)n2C1)[C@@H]3C` [ferroptocide], the “sensitivity of BRAF-amplified M249 dual MAPKi-resistant cells compared to parental” value in assay [3] (FIG. 23B, M249-VSR-DM and -HSR, 72 hr treatment, CellTiter-Glo) is “sensitive”.

Turning to `N[C@@H](CCC(=O)N[C@@H](CS)C(=O)NCC(=O)O)C(=O)O` [GSH, reduced glutathione], the “rescue of RSL3-induced cell death (percent viable cells)” value in assay [8] is given as “cell death can be rescued”.
